Measurements as given in patent US20100168112A1, “2-Substituted and 4-substituted aryl nitrone compounds” (RENOVIS, INC., priority 2004, published 2010).
Values belong to the compound of their own block, whether it stands above or below them.

Assays:
CCI rats = assay: Mechanical allodynia in mononeuropathic pain model (chronic constrictive injury, CCI, Bennett model); assay type: in vivo, SD rats; details: for anti-allodynic effect on ipsilateral hind paw vs vehicle (in words): single dose 50 mg/kg, p.o.; for PWT ipsilateral hind paw (von Frey): 50 mg/kg p.o. single dose, mean ± SEM
Source text: Adult male SD rats weighing 250-300 gm (Charles River Laboratories, San Diego, Calif.) were used. The animal room was lighted artificially at a 12-hr light-dark cycle (7:00 A.M. to 7:00 P.M) with water and food supply ad libitum. Animals were allocated randomly into groups. Seven days before establishing the mononeuropathic pain disease model, rats were trained on a metal mesh floor, covered with a plastic box (10×10×18 cm) 1-2 hr per day to habituate. During the habituating phase, non-painful tactile stimulation on the plantar surface of each hind paw was induced by a set of calibrated von Frey filaments, through the mesh floor, as described in example 2.
Following the 7-day training phase, the animals were anesthetized by i.p. injection of sodium pentobarbital (65 mg/kg, Abbott Lab, Chicago, Ill.). Under aseptic procedures, the skin of the left thigh was cut open for ˜2 cm. Mid-thigh level of the common sciatic nerve was exposed after blunt separation of the muscles. Two 4-0 silk and one 4-0 chromic gut sutures (both from Ethicon, Somerville, N.J.) were loosely ligated around the nerve, with a 1-1.5 mm interval between each of them. Skin wound was then close with wound clips. The right side (i.e., the contralateral side) was not surgically injured. After recovery from surgery, rats showing post-surgery neurological deficits or poor grooming were excluded from the experiments. This surgical procedure (i.e., chronic constrictive injury, CCI, or Bennett model) to establish mononeuropathic pain disease model has been described elsewhere (Bennett, G. J. and Xie, Y. K.: A peripheral mononeuropathy in rat that produces disorders of pain sensation like those seen in man. Pain, 33: 87-107, 1988).
On days 1, 3, 4, 7, 9, 11, and 14 after surgery, animals were tested for mechanical allodynia with von Frey filaments as described previously. On or around post-surgical day 14, the ipsilateral hind paw, felt to 5 grams, an indication of allodynia began to manifest mechanical allodynia (i.e., amplified response to non-painful tactile stimulation by von Frey filaments). The contralateral hind paws remained above the 5-gram level (i.e., no allodynia).
After manifestation of this allodynia, Compound 62 (50 mg/kg, p.o.), Compound 63 (50 mg/kg, p.o.), Compound 66 (50 mg/kg, p.o.), Compound 23 (50 mg/kg, p.o.), 4-hydroxy-tempol (TEMPOL, 50 mg/kg, p.o.), or piroxicam (a COX1 inhibitor, 50 mg/kg, p.o.) were administered to randomly-assigned animals. Changes of mechanical allodynia in the ipsilateral hind paw were recorded at several time points over the course of up to 24 hr.

[1] = DPPH free radical-scavenging/antioxidant assay; assay type: biochemical; details: 50 μM DPPH in 80% methanol; 24 h time point; read-out: EC50 (concentration at which a compound reduces by 50% the peak absorbance of DPPH at 520 nm)
In short: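 Compounds diluted 100-fold from DMSO stocks into 50 μM DPPH in 80% methanol; absorbance at 520 nm followed kinetically to steady state, with the 24 h reading used. EC50 interpolated from OD520 versus concentration; Trolox, BHA, PBN and S-PBN as positive controls, DMSO as vehicle.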

[2] = Microsomal stability in rat liver microsomes; assay type: in vitro ADME; details: rat liver microsomes 0.5 mg/ml, 1 mM NADPH, ~500 ng/ml compound, 37° C.
Procedure: Frozen Sprague-Dawley rat liver microsomes (RLM) were thawed on ice and gently mixed before use. The final reaction mixture consisted of a nitrone compound of this invention (at ˜500 ng/ml), 1 mM NADPH, and 0.5 mg/ml of RLM protein in 0.1 M PBS (pH7.4), with organic solvent concentration not exceeding 1% (v/v). Per set of incubations, a positive control compound was included. The mixture was first pre-incubated 3 to 5 minutes at 37° C. without NADPH, and the reaction was then initialized by the addition of NADPH and incubated at 37° C. for up to 30 minutes. An aliquot of the reaction mixture was sampled at the initiation of the reaction and at designated time after reaction started. The drawn samples were quenched with acetonitrile, diluted with mobile phase to ensure the detection of test article in the linear range, and analyzed by LC/MS/MS. Half-life or percentage of remaining nitrone compound was calculated using standard methods. A similar method, or a slight variation of it, was used to test the stability of nitrones in human liver microsomes (HLM).

[3] = system: carrageenan-sensitized inflammatory model of rat; assay: Carrageenan-sensitized thermal hyperalgesia (Hargreaves test); assay type: in vivo; details: 30 mg/kg oral, data not shown
Procedure: In this experiment, animals were habituated to the test environment for 2 days. Each rat was individually placed on a transparent perplex glass floor, covered with a plastic box (10×10×18 cm), and allowed 0.5-1 hr to habituate. After the acclimation period, basal thermal withdrawal latency (PWL, time interval between heat stimulation and paw withdrawal) was measured by exposing the plantar surface of a rats hind paw to a beam of radiant heat generated from a focused projection bulb through a transparent perplex glass surface (Hargreaves test; Hargreaves, K. R., Dubner, R., Brown, F., Flores, C. & Joris, J.: A new and sensitive method for measuring thermal nociception in cutaneous hyperalgesia. Pain, 32: 77-88, 1988). The PWL was averaged from at least two trials separated by a 2 min interval. A timer was used to measure the withdrawal latency and a cut of time of 20-sec was used to prevent tissue damage. Before the test on STZ-diabetic rats, the intensity of the radiating heat was adjusted to the level that caused naive animal to withdraw its paw at around 10 seconds.
After a stable basal PWL was obtained, the animals were briefly anesthetized with isoflurane (2-5% to effect). One side of their hind paws received an intraplantar injection of lambda carrageenan (2 mg in 100 microliter sterile saline, Sigma, St. Louis, Mo.). The contralateral side received no injection and served as an intra-subject control. The animals were then returned to their home cages and transferred to the individual testing chambers for heat thermal hyperalgesic testing, 2.5 hr after carrageenan injection. 3-hr post-carrageenan injection, PWLs of both hind paws (i.e., ipsilateral and contralateral) were measured at several time points post-carrageenan injection (15-min to 24-hr).
For compound testing, rats were randomly enrolled into groups that, immediately after the 3-hr post-carrageenan PWL was obtained, received oral dosing of Compound 62 (50 mg/kg), Compound 63 (50 mg/kg), vehicle (1 ml/kg), or indomethacin (30 mg/kg). Compound 62 and Compound 63 were prepared as a suspension in vehicle (96% of 0.5% CMC and 4% of 10% Tween 80) while indomethacin was prepared as a 30 mg/ml in normal saline.

[4] = Pharmacokinetic evaluation following intravenous and oral administration in rats; assay type: in vivo; details: male, Sprague-Dawley; for Cmax / Tmax / bioavailability: 5 mg/kg; for Cmax: rat plasma; for Cmax / Tmax: oral gavage, 2 mg/mL at 2.5 mL/kg; for clearance / Vd / Tmax / bioavailability / half-life: plasma, rat; for clearance / Vd / half-life: 1 mg/kg; for clearance / Vd: intravenous administration, 1 mg/mL at 1.0 mL/kg; for clearance: read-out: CI (clearance) (converted); for Vd: read-out: Vd (volume of distribution); for bioavailability: po 2 mg/mL at 2.5 mL/kg vs iv 1 mg/mL at 1.0 mL/kg, dose-normalized, read-out: F (%) oral bioavailability; for half-life: intravenous, read-out: T1/2 elimination half life (converted)
In short: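 Male Sprague-Dawley rats, fasted, dosed iv (1 mg/mL formulation, 1.0 mL/kg, jugular or tail vein) or by oral gavage (2 mg/mL suspension, 2.5 mL/kg). Plasma sampled from 2 min to 480 min, some to 24 h, and quantified by LC-MS/MS (MRM). Parameters from noncompartmental analysis.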

[5] = Plasma protein binding (equilibrium dialysis), rat plasma; assay type: in vitro ADME; details: 1 μg/mL in plasma, dialysis vs phosphate buffer pH 7.4 overnight at 37° C., read-out: Plasma Protein Binding % Bound Rat (converted)
Procedure: (§1) Nitrone compounds of this invention were individually dissolved in DMSO to make a stock solution of 1 mg/mL. The compound was spiked into plasma to achieve a final concentration of 1 μg/mL. Spiked plasma and phosphate buffer (0.1M, pH 7.4), 200 μl each, were added to the opposite sides of the membrane in a 96-well equilibrium dialyzer. The dialyzer plate was then covered and equilibrated overnight at 37° C. on an orbital shaker. Aliquots were taken from the plasma and the buffer compartments and prepared by adding blank plasma to samples from the buffer compartments and drug-free phosphate buffer to samples from the plasma compartments to eliminate the matrix effects. The samples were extracted using protein precipitation procedure by adding CH3CN. The samples were analyzed using a LC/MS/MS method. The percentage of free and bound nitrone compound were calculated according to the following formula:
(§2) %Free=[Free Drug/Total Drug]*100=[(Peak Area)buffer/(Peak Area)serum]*100%Bound=100%Free

[6] = Plasma protein binding (equilibrium dialysis), human plasma; assay type: in vitro ADME; details: 1 μg/mL in plasma, dialysis vs phosphate buffer pH 7.4 overnight at 37° C., read-out: Plasma Protein Binding % Bound Human (converted)
Procedure: as §1, §2

SMILES: CN1C(C(=O)Nc2ccccn2)=C(O)c2ccccc2S1(=O)=O [piroxicam, reference compound]
anti-allodynic effect on ipsilateral hind paw vs vehicle (in words) (CCI rats): long-lasting anti-allodynic effect

SMILES: COc1ccc2c(c1)c(CC(=O)O)c(C)n2C(=O)c1ccc(Cl)cc1 [indomethacin, reference compound]
effect on carrageenan-sensitized heat hyperalgesia (in words) [3]: significantly reversed carrageenan-sensitized heat hyperalgesia

SMILES: CC(C)S(=O)(=O)c1ccccc1/C=[N+](\[O-])C(C)(C)C [Compound 69, N-tert-Butyl-C-[2-(2-propanesulfonyl)phenyl]nitrone]
EC50 [1]: > 1000 µM | Cmax [4]: 1840 ng/mL | clearance [4]: 14 mL/min/kg | Vd [4]: 0.76 L/kg | Tmax [4]: 11.4 min | bioavailability [4]: 54.9% | half-life [4]: 38.4 min | fraction unbound at 1 μg/mL [5]: 0.755 | fraction unbound at 1 μg/mL [6]: 0.532

SMILES: CC1(C)CC(O)CC(C)(C)N1[O] [TEMPOL, 4-hydroxy-tempol, reference compound]
PWT ipsilateral hind paw (von Frey) (CCI rats; post-dosing time 30 min): 4.80 ± 0.49 gm | PWT ipsilateral hind paw (von Frey) (CCI rats; post-dosing time 60 min): 4.80 ± 0.49 gm | PWT ipsilateral hind paw (von Frey) (CCI rats; post-dosing time 300 min): 5.48 ± 1.09 gm | PWT ipsilateral hind paw (von Frey) (CCI rats; post-dosing time 1440 min): 4.80 ± 1.02 gm | PWT ipsilateral hind paw (von Frey) (CCI rats; post-dosing time −15 min (pre-dose)): 4.00 ± 0.89 gm | anti-allodynic effect on ipsilateral hind paw vs vehicle (in words) (CCI rats): no significant anti-allodynic effect

SMILES: CCS(=O)(=O)c1ccc(/C=[N+](\[O-])C(C)(C)C)cc1 [Compound 67, N-tert-Butyl-C-(4-ethanesulfonylphenyl)nitrone]
EC50 [1]: > 1000 µM | Cmax [4]: 4760 ng/mL | clearance [4]: 1.17 mL/min/kg | Vd [4]: 0.42 L/kg | Tmax [4]: 79.8 min | bioavailability [4]: 46.4% | half-life [4]: 266 min | fraction unbound at 1 μg/mL [5]: 0.78 | fraction unbound at 1 μg/mL [6]: 0.864

SMILES: CC(C)(C)/[N+]([O-])=C/c1ccc(S(=O)(=O)C2CCCC2)cc1 [Compound 71, N-tert-Butyl-C-[4-(cyclopentanesulfonyl)phenyl]nitrone]
EC50 [1]: > 1000 µM | Cmax [4]: 108 ng/mL | clearance [4]: 31 mL/min/kg | Vd [4]: 1.66 L/kg | Tmax [4]: 16.8 min | bioavailability [4]: 5.87% | half-life [4]: 45.6 min | fraction unbound at 1 μg/mL [5]: 0.484 | fraction unbound at 1 μg/mL [6]: 0.544

Results, then the compound that gave them:

EC50 [1]: > 1000 µM | % of Nitrone Remaining at 30 min (Rat) [2]: 0%
SMILES: CCN(CC)S(=O)(=O)c1ccccc1/C=[N+](\[O-])Cc1ccccc1 [Compound 32, N-Benzyl-C-(2-diethylsulfamoylphenyl)nitrone]

EC50 [1]: 500 to 1000 µM | Cmax [4]: 2110 ng/mL | clearance [4]: 7.83 mL/min/kg | Vd [4]: 0.63 L/kg | Tmax [4]: 59.4 min | bioavailability [4]: 36.4% | half-life [4]: 55.8 min | fraction unbound at 1 μg/mL [5]: 0.783 | fraction unbound at 1 μg/mL [6]: 0.781
SMILES: CCS(=O)(=O)c1ccccc1/C=[N+](\[O-])C(C)(C)C [Compound 68, N-tert-Butyl-C-(2-ethanesulfonylphenyl)nitrone]

EC50 [1]: > 1000 µM | Cmax [4]: 1270 ng/mL | clearance [4]: 20 mL/min/kg | Vd [4]: 1.07 L/kg | Tmax [4]: 29.4 min | bioavailability [4]: 52.2% | half-life [4]: 37.2 min | fraction unbound at 1 μg/mL [5]: 0.718 | fraction unbound at 1 μg/mL [6]: 0.796
SMILES: CC(C)S(=O)(=O)c1ccc(/C=[N+](\[O-])C(C)(C)C)cc1 [Compound 70, N-tert-Butyl-C-[4-(2-propanesulfonyl)phenyl]nitrone]

EC50 [1]: > 1000 µM | Cmax [4]: 1520 ng/mL | clearance [4]: 11 mL/min/kg | Vd [4]: 2.69 L/kg | Tmax [4]: 19.2 min | bioavailability [4]: 59.8% | half-life [4]: 169 min | fraction unbound at 1 μg/mL [5]: 0.319 | fraction unbound at 1 μg/mL [6]: 0.367
SMILES: CC(C)(C)/[N+]([O-])=C/c1ccc(C(F)(F)F)cc1S(C)(=O)=O [Compound 72, N-tert-Butyl-C-[2-methanesulfonyl-4-trifluoromethylphenyl]nitrone]
